# Data as given in US20150011751A1, “NOVEL TRIAZINE DERIVATIVE” (CARNA BIOSCIENCES, INC., priority 2012, published 2015).
# Biological target: Dephosphorylated BTK (Homo sapiens, UniProt Q06187)
# Experiment: Test of activity inhibition against dephosphorylated BTK (mobility shift assay)
# Sequence of Dephosphorylated BTK (Q06187 whole entry): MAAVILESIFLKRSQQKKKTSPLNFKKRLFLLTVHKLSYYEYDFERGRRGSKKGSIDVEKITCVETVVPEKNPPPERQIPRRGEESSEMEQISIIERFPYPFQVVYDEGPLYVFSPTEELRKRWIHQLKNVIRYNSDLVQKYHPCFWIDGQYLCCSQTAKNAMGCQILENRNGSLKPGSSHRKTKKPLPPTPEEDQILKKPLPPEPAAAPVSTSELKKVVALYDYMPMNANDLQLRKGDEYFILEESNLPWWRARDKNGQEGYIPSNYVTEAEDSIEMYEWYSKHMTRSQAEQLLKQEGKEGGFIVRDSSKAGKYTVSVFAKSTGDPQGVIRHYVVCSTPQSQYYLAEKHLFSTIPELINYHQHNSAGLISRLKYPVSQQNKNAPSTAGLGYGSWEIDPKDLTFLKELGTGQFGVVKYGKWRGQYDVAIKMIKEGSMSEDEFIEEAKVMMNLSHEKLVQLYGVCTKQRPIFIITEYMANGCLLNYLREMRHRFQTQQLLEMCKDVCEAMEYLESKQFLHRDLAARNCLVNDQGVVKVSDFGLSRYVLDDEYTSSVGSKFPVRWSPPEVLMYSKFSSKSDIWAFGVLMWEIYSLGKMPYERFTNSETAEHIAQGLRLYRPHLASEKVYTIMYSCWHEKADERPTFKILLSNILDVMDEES
row,Structure (SMILES),IC50 [nM]
1,"CC(C)(C)c1ccc(C(=O)Nc2cccc(-c3nc(N)nc(Nc4ccc(N5CCOCC5)cn4)n3)c2CO)cc1 [Example 99, N-(3-{4-Amino-6-[(5-morpholinopyridin-2-yl)amino]-1,3,5-triazin-2-yl}-2-(hydroxymeth-yl)phenyl)-4-(tert-butyl)benzamide]",10.6
2,"Nc1nc(Nc2ccc(Cn3cccn3)cc2)nc(-c2cccc(N3CCc4cc(C5CC5)cc(F)c4C3=O)c2CO)n1 [Example 50, 2-{3-[4-({4-[(1H-Pyra-zol-1-yl)methyl]phenyl}amino)-6-amino-1,3,5-triazin-2-yl]-2-(hy-droxymethyl)phenyl}-6-cyclopropyl-8-fluoro-3,4-dihydroisoquino-lin-1(2H)-one]",1
3,"NC(=O)c1cc(Nc2nc(N)nc(-c3cccc(N4CCc5cc(C6CC6)cc(F)c5C4=O)c3CO)n2)c[nH]1 [Example 255, 4-({4-Amino-6-[3-(6-cyclo-propyl-8-fluoro-1-oxo-3,4-dihydroisoquino-lin-2(1H)-yl)-2-(hydroxy-methyl)phenyl]-1,3,5-triazin-2-yl}ami-no)-1H-pyrrole-2-carboxamide]",0.5
4,"Nc1nc(Nc2cnn(CC(F)(F)F)c2)nc(-c2cccc(N3CCc4cc(C5CC5)cc(F)c4C3=O)c2CO)n1 [Example 240, 2-[3-(4-Amino-6-{[1-(2,2,2-trifluoroethyl)-1H-pyrazol-4-yl]amino}-1,3,5-triazin-2-yl)-2-(hydroxymethyl)phe-nyl]-6-cyclopropyl-8-fluoro-3,4-dihydroiso-quinolin-1(2H)-one]",1.1
5,"COCCOc1ccc(Nc2nc(N)nc(-c3cccc(NC(=O)c4ccc(C(C)(C)C)cc4)c3CO)n2)cc1OCCOC [Example 90, N-[3-(4-Amino-6-{[3,4-bis(2-methoxyethoxy)phenyl]amino}-1,3,5-tri-azin-2-yl)-2-(hydroxy-methyl)phenyl]-4-(tert-butyl)benzamide]",0.7
6,"CC(C)(C)c1ccc(C(=O)Nc2cccc(-c3nc(N)nc(Nc4cccc(CO)c4)n3)c2CO)cc1 [Example 122, N-[3-(4-Amino-6-{[3-(hy-droxymethyl)phenyl]amino}-1,3,5-triazin-2-yl)-2-(hydroxymethyl)phenyl]-4-(tert-butyl)benzamide]",0.8
7,"CC(C)(O)c1ccc(C(=O)Nc2cccc(-c3nc(N)nc(Nc4ccc(N5CCOCC5)cc4)n3)c2CO)cc1 [Example 208, N-(3-{4-Amino-6-[(4-morpholinophenyl)amino]-1,3,5-triazin-2-yl}-2-(hydroxymethyl)phe-nyl)-4-(2-hydroxy-propan-2-yl)benzamide]",5.9
8,"Nc1nc(Nc2ccc(CN3CCOCC3)cc2)nc(-c2cccc(N3CCc4cc(C5CC5)cc(F)c4C3=O)c2CO)n1 [Example 45, 2-[3-(4-Amino-6-{[4-(morpho-linomethyl)phe-nyl]amino}-1,3,5-tri-azin-2-yl)-2-(hydroxymeth-yl)phenyl]-6-cyclopro-pyl-8-fluoro-3,4-di-hydroisoquinolin-1(2H)-one]",1.7
9,"C=CCn1cc(Nc2nc(N)nc(-c3cccc(N4CCc5cc(C6CC6)cc(F)c5C4=O)c3CO)n2)cn1 [Example 274, 2-(3-{4-[(1-Allyl-1H-pyrazol-4-yl)amino]-6-amino-1,3,5-triazin-2-yl}-2-(hydroxymethyl)phenyl)-6-cyclopropyl-8-fluoro-3,4-dihydro-isoquinolin-1(2H)-one]",1
10,"Cc1c(NC(=O)c2ccc(C(C)(C)C)cc2)cccc1-c1ncnc(Nc2ccc(CN3CCOCC3)cc2)n1 [Example 25, 4-(tert-Butyl)-N-[2-meth-yl-3-(4-{[4-(morpho-linomethyl)phenyl]ami-no}-1,3,5-triazin-2-yl)phenyl]benzamide]",3.5
11,"COCCN(CCOC)Cc1ccc(Nc2nc(N)nc(-c3cccc(NC(=O)c4ccc(C(C)(C)C)cc4)c3CO)n2)cc1 [Example 105, N-(3-{4-Amino-6-[(4-{[bis (2-methoxyethyl)ami-no]methyl}phenyl)ami-no)-1,3,5-triazin-2-yl]-2-(hydroxymethyl)phenyl}-4-(tert-butyl) benzamide]",0.9
12,"CC(C)(C)c1ccc(C(=O)Nc2cccc(-c3nc(N)nc(Nc4ccc(N5CCNC5=O)cc4)n3)c2CO)cc1 [Example 167, N-[3-(4-Amino-6-{[4-(2-oxoimidazolidin-1-yl)phenyl]amino}-1,3,5-triazin-2-yl)-2-(hy-droxymethyl)phenyl]-4-(tert-butyl)benzamide]",1.6
13,"COCCN(CCOC)Cc1ccc(Nc2nc(N)nc(-c3cccc(NC(=O)c4cc5c(s4)CCCC5)c3CO)n2)cc1 [Example 129, N-(3-{4-Amino-6-[(4-{[bis (2-methoxyethyl)a-mino]methyl}phenyl)ami-no]-1,3,5-triazin-2-yl}-2-(hydroxymethyl)phenyl)-4,5,6,7-tetra-hydrobenzo[b]thiophene-2-carboxamide]",0.6
14,"CC(C)(C)c1ccc(C(=O)Nc2cccc(-c3nc(N)nc(Nc4ccc(NS(C)(=O)=O)cc4)n3)c2CO)cc1 [Example 112, N-[3-(4-Amino-6-{[4-(meth-ylsulfonamido)phe-nyl]amino}-1,3,5-tria-zin-2-yl)-2-(hydroxymeth-yl)phenyl]-4-(tert-butyl)benzamide]",1.1
15,"Nc1nc(Nc2ccc(N3CCOCC3)cc2)nc(-c2cccc(NC(=O)c3ccc4c(c3)CCCC4)c2CO)n1 [Example 102, N-(3-{4-Amino-6-[(4-morpholinophenyl)amino]-1,3,5-triazin-2-yl}-2-(hydroxymethyl)phe-nyl)-5,6,7,8-tetrahydro-naphthalene-2-carbox-amide]",8.7
16,"Nc1nc(Nc2ccc(N3CCCC3)cc2)nc(-c2cccc(N3CCc4cc(C5CC5)cc(F)c4C3=O)c2CO)n1 [Example 244, 2-[3-(4-Amino-6-{[4-(pyr-rolidin-1-yl)phenyl]amino}-1,3,5-triazin-2-yl)-2-(hydroxymeth-yl)phenyl]-6-cyclopro-pyl-8-fluoro-3,4-dihy-droisoquinolin-1(2H)-one]",4.6
17,"CC(C)(C)c1ccc(C(=O)Nc2cccc(-c3nc(N)nc(Nc4cn[nH]c4)n3)c2CO)cc1 [Example 165, N-(3-{4-[(1H-Pyrazol-4-yl)amino]-6-amino-1,3,5-triazin-2-yl}-2-(hydroxymethyl)phenyl)-4-(tert-butyl)benzamide]",0.7
18,"Cc1cc(Nc2nc(N)nc(-c3cccc(NC(=O)c4ccc(C(C)(C)C)cc4)c3CO)n2)ccc1O [Example 117, N-(3-{4-Amino-6-[(4-hy-droxy-3-methylphenyl)amino]-1,3,5-triazin-2-yl)-2-(hydroxymeth-yl)phenyl)-4-(tert-butyl)benzamide]",0.9
19,"Nc1nc(Nc2ccc(OCCCO)cc2)nc(-c2cccc(N3CCc4cc(C5CC5)cc(F)c4C3=O)c2CO)n1 [Example 197, 2-[3-(4-Amino-6-{[4-(3-hydroxypropoxy)phe-nyl]amino}-1,3,5-tri-azin-2-yl)-2-(hydroxymeth-yl)phenyl]-6-cyclo-propyl-8-fluoro-3,4-di-hydroisoquinolin-1(2H)-one]",2.4
20,"Cc1c(NC(=O)c2ccc(C(C)(C)C)cc2)cccc1-c1nc(N)nc(Nc2ccc(N3CCOC(CO)C3)cc2)n1 (centres unmarked) [Example 92, N-{3-[4-Amino-6-({4-[2-(hydroxymethyl)morpho-lin]phenyl}amino)-1,3,5-triazin-2-yl]-2-methylphenyl}-4-(tert-butyl)benzamide]",0.9
